Active and inactive are the calls of the source. No rule for the calls is given here.
Test system: M. tuberculosis BioA-TetON underexpression strain, growth inhibition
Assay: antitubercular activity, BioA-TetON-5 strain, plate reader, dry powder (AID 743072)
Conditions: for IC90: measured here: 90% growth inhibition

**Q.** `O=C(Nc1cccnc1)c1cnn2c(C(F)(F)F)cc(-c3ccccc3)nc12` was tested. Which IC50 did it give?
**A.** > 50 µM (inactive)

**Q.** What about the IC90 of the same compound?
**A.** > 50 µM

**Q.** `CC(=O)c1ccc(N2CCN(C(=O)c3cccnc3)CC2)cc1` was tested. Which IC50 did it give?
**A.** > 50 µM (inactive)

**Q.** And the IC90?
**A.** > 50 µM

**Q.** How did the IC50 turn out when `O=C(Nc1ccc(Cl)c(-c2nc3ccccc3[nH]2)c1)c1cccnc1` was run?
**A.** 1.9 µM

**Q.** What about the IC90 of the same compound?
**A.** 14.5 µM

**Q.** How did the IC50 turn out when `Cc1ccc(/C=C(\CCC(=O)O)c2nc3ccccc3s2)cc1[N+](=O)[O-]` was run?
**A.** 0.3 µM

**Q.** What about the IC90 of the same compound?
**A.** 0.7 µM

**Q.** Which results are given for `Cc1ccccc1/C=C(\CCC(=O)O)c1nc2ccccc2s1`?
**A.** IC50: 4.7 µM; IC90: 25.3 µM

**Q.** How did the IC50 turn out when `Cc1nc2ccc(NC(=O)N3CCN(c4ccccc4)CC3)cc2s1` was run?
**A.** 1.3 µM

**Q.** What about the IC90 of the same compound?
**A.** 3.8 µM

**Q.** Which IC50 does the source give for `COC(=O)c1c(C(=O)OC)c(-c2cccc(F)c2)n2c1CS(=O)C2` (stereo not given) here?
**A.** 1.7 µM

**Q.** And the IC90?
**A.** 34.9 µM

**Q.** How did the IC50 turn out when `O=C(Nc1ccc2[nH]ccc2c1)N1CCN(c2ccccc2)CC1` was run?
**A.** 11.7 µM

**Q.** What about the IC90 of the same compound?
**A.** > 50 µM

**Q.** What does the source list for `COc1ccc(-c2cc(C(F)(F)F)n3nc(C(=O)Nc4cccnc4)cc3n2)cc1`?
**A.** IC50: 0.3 µM; IC90: 0.9 µM

**Q.** How did the IC50 turn out when `O=C(Nc1ccc(Cl)cc1)c1cc2nc(C3CC3)cc(C(F)(F)F)n2n1` was run?
**A.** 50 µM

**Q.** And the IC90?
**A.** > 50 µM

**Q.** For `CCc1ccc(C(=O)N2CCN(Cc3ccc4c(c3)OCO4)CC2)cc1`, which IC50 is on record?
**A.** 5.2 µM

**Q.** What about the IC90 of the same compound?
**A.** > 50 µM

**Q.** Which results are given for `CC(=O)c1ccc(N2CCN(C(=O)c3ccc(F)cc3)CC2)cc1`?
**A.** IC50: 44.7 µM; IC90: > 50 µM

**Q.** `Cc1ccc(/C=C(\CC(=O)O)c2nc3ccccc3s2)cc1[N+](=O)[O-]` was tested. Which IC50 did it give?
**A.** 2.9 µM

**Q.** What about the IC90 of the same compound?
**A.** 17.2 µM

**Q.** How did the IC50 turn out when `Cc1ccc(/C=C(\CCCC(=O)O)c2nc3ccccc3s2)cc1[N+](=O)[O-]` was run?
**A.** 6.1 µM

**Q.** What about the IC90 of the same compound?
**A.** 46.2 µM

**Q.** Which IC50 does the source give for `O=C(c1ccc2c(c1)OCO2)N1CCN(c2ccc(F)cc2)CC1` here?
**A.** 10.6 µM

**Q.** And the IC90?
**A.** > 50 µM

**Q.** Which IC50 does the source give for `CC(=O)c1ccc(N2CCN(C(=O)c3ccccc3)CC2)cc1` here?
**A.** > 50 µM (inactive)

**Q.** And the IC90?
**A.** > 50 µM

**Q.** `Cc1nc2cc(NC(=O)N3CCN(c4ccccc4)CC3)ccc2o1` was tested. Which IC50 did it give?
**A.** 36 µM

**Q.** And the IC90?
**A.** > 50 µM

**Q.** With `CCN(CC)c1ccc2cc(C(=O)c3cccs3)c(=O)oc2c1` as the compound, how does the IC50 read?
**A.** 1.1 µM

**Q.** And the IC90?
**A.** 5.6 µM

**Q.** With `O=C(Nc1ccc2snnc2c1)N1CCOCC1` as the compound, how does the IC50 read?
**A.** > 50 µM (inactive)

**Q.** And the IC90?
**A.** > 50 µM

**Q.** `CC(C)(C)c1ccc(C(=O)N2CCN(c3ccc4c(c3)OCO4)CC2)cc1` was tested. Which IC50 did it give?
**A.** 10.7 µM

**Q.** What about the IC90 of the same compound?
**A.** 29.5 µM

**Q.** Which results are given for `CC(=O)c1ccc(N2CCN(C(=O)c3ccc4ncsc4c3)CC2)cc1`?
**A.** IC50: 12.9 µM; IC90: > 50 µM

**Q.** Which IC50 does the source give for `COc1ccc(C(=O)N2CCN(c3ccc(C(C)=O)cc3)CC2)cc1` here?
**A.** 38.5 µM

**Q.** And the IC90?
**A.** > 50 µM

**Q.** What does the source list for `CC(=O)c1ccc(N2CCN(C(=O)c3ccc(Cl)cc3)CC2)cc1`?
**A.** IC50: 27.9 µM; IC90: > 50 µM

**Q.** What does the source list for `Cc1ccc(NC(=O)N2CCN(c3ccccc3)CC2)cc1`?
**A.** IC50: 10.6 µM; IC90: > 50 µM

**Q.** Which results are given for `COc1cc(/C=C/C(=O)Nc2cccnc2)cc(OC)c1OC`?
**A.** IC50: 1.3 µM; IC90: 15.3 µM

**Q.** What does the source list for `COc1ccc(NC(=O)N2CCN(c3ccccc3)CC2)cc1`?
**A.** IC50: 48 µM; IC90: > 50 µM

**Q.** With `Cc1cc(C)n2nc(C(=O)Nc3cccnc3)nc2n1` as the compound, how does the IC50 read?
**A.** 50 µM

**Q.** What about the IC90 of the same compound?
**A.** > 50 µM

**Q.** What does the source list for `CC(=O)c1ccc(N2CCN(C(=O)c3ccc4c(c3)OCCO4)CC2)cc1`?
**A.** IC50: > 50 µM (inactive); IC90: > 50 µM

**Q.** For `Cc1cccc(/C=C(\CCC(=O)O)c2nc3ccccc3s2)c1`, which IC50 is on record?
**A.** 1.8 µM

**Q.** And the IC90?
**A.** 9 µM

**Q.** `O=C(Nc1ccc2snnc2c1)N1CCN(c2ccccc2)CC1` was tested. Which IC50 did it give?
**A.** 0.9 µM

**Q.** What about the IC90 of the same compound?
**A.** 8.3 µM

**Q.** What does the source list for `O=C(Nc1cccnc1)c1cnn2c(C(F)F)cc(C3CC3)nc12`?
**A.** IC50: 3.3 µM; IC90: > 50 µM

**Q.** `O=C(Nc1cccnc1)c1cc2nc(-c3cccs3)cc(C(F)(F)F)n2n1` was tested. Which IC50 did it give?
**A.** > 50 µM (inactive)

**Q.** And the IC90?
**A.** > 50 µM

**Q.** How did the IC50 turn out when `O=C(Nc1ccc2snnc2c1)N1CCCCC1` was run?
**A.** 22 µM

**Q.** What about the IC90 of the same compound?
**A.** > 50 µM

**Q.** Which IC50 does the source give for `COc1cccc(C(=O)N2CCN(c3ccc(C(C)=O)cc3)CC2)c1` here?
**A.** 41.5 µM

**Q.** And the IC90?
**A.** > 50 µM

**Q.** For `CC(=O)c1ccc(N2CCN(C(=O)c3cccc(F)c3)CC2)cc1`, which IC50 is on record?
**A.** > 50 µM (inactive)

**Q.** What about the IC90 of the same compound?
**A.** > 50 µM

**Q.** With `O=C(Nc1cccc(F)c1)N1CCN(c2ccccc2)CC1` as the compound, how does the IC50 read?
**A.** 4.6 µM

**Q.** What about the IC90 of the same compound?
**A.** 32.9 µM

**Q.** `O=C(O)CC/C(=C\c1ccc([N+](=O)[O-])cc1)c1nc2ccccc2s1` was tested. Which IC50 did it give?
**A.** 1.3 µM

**Q.** And the IC90?
**A.** 7.9 µM

**Q.** With `CC(=O)c1ccc(N2CCN(C(=O)c3cccc(Cl)c3)CC2)cc1` as the compound, how does the IC50 read?
**A.** 2.2 µM

**Q.** What about the IC90 of the same compound?
**A.** 16.5 µM

**Q.** Which results are given for `O=C(c1ccc2c(c1)OCO2)N1CCN(c2ccccc2)CC1`?
**A.** IC50: 20.9 µM; IC90: > 50 µM

**Q.** For `CCc1ccc(N2CCN(C(=O)c3ccc4c(c3)OCO4)CC2)cc1`, which IC50 is on record?
**A.** 6.3 µM

**Q.** What about the IC90 of the same compound?
**A.** > 50 µM

**Q.** Which IC50 does the source give for `O=C(c1ccc2c(c1)OCO2)N1CCN(Cc2ccccc2)CC1` here?
**A.** > 50 µM (inactive)

**Q.** What about the IC90 of the same compound?
**A.** > 50 µM

**Q.** `O=C(Nc1cccnc1)N1CCN(c2ccccc2)CC1` was tested. Which IC50 did it give?
**A.** > 50 µM (inactive)

**Q.** And the IC90?
**A.** > 50 µM

**Q.** For `Cc1cc(C)n2nc(C(=O)Nc3cccnc3)cc2n1`, which IC50 is on record?
**A.** 4.2 µM

**Q.** And the IC90?
**A.** > 50 µM

**Q.** With `CC(=O)c1ccc(N2CCN(C(=O)c3ccc4c(c3)OCO4)CC2)cc1` as the compound, how does the IC50 read?
**A.** 1.3 µM

**Q.** What about the IC90 of the same compound?
**A.** 9.3 µM

**Q.** Which results are given for `O=C(COc1ccc2ccc(=O)oc2c1)N1CCN(c2ccc(F)cc2)CC1`?
**A.** IC50: 10.2 µM; IC90: 42.7 µM

**Q.** What does the source list for `O=C(Nc1ccc(F)cc1)N1CCN(c2ccccc2)CC1`?
**A.** IC50: 5.1 µM; IC90: > 50 µM

**Q.** `O=C(c1ccc2c(c1)OCO2)N1CCN(c2ccc(Cl)cc2)CC1` was tested. Which IC50 did it give?
**A.** 11.3 µM

**Q.** And the IC90?
**A.** 44.5 µM

**Q.** How did the IC50 turn out when `COc1ccc(N2CCN(C(=O)c3ccc4c(c3)OCO4)CC2)cc1` was run?
**A.** 17.6 µM

**Q.** What about the IC90 of the same compound?
**A.** > 50 µM

**Q.** For `CCOC(=O)N1CCN(C(=O)Nc2ccc3snnc3c2)CC1`, which IC50 is on record?
**A.** 3.8 µM

**Q.** What about the IC90 of the same compound?
**A.** 29.6 µM

**Q.** What does the source list for `O=C(Nc1cccc(Cl)c1)N1CCN(c2ccccc2)CC1`?
**A.** IC50: 4.9 µM; IC90: > 50 µM

**Q.** What does the source list for `CC(=O)c1ccc(N2CCN(C(=O)c3ccc(C)cc3)CC2)cc1`?
**A.** IC50: 31.4 µM; IC90: > 50 µM

**Q.** How did the IC50 turn out when `O=C(Nc1ccncc1)c1cc2nc(C3CC3)cc(C(F)F)n2n1` was run?
**A.** 50 µM

**Q.** What about the IC90 of the same compound?
**A.** > 50 µM

**Q.** With `CC(=O)c1ccc(N2CCN(Cc3ccc4c(c3)OCO4)CC2)cc1` as the compound, how does the IC50 read?
**A.** 25.2 µM

**Q.** What about the IC90 of the same compound?
**A.** > 50 µM

**Q.** For `O=C(O)CC/C(=C\c1ccccc1[N+](=O)[O-])c1nc2ccccc2s1`, which IC50 is on record?
**A.** 50 µM

**Q.** What about the IC90 of the same compound?
**A.** > 50 µM

**Q.** For `O=C(Nc1ccccc1)N1CCN(c2ccccc2)CC1`, which IC50 is on record?
**A.** 3.2 µM

**Q.** And the IC90?
**A.** 48.2 µM

**Q.** What does the source list for `COc1cccc(NC(=O)CCC2CCN(C(=O)c3ccc(C(C)=O)s3)CC2)c1`?
**A.** IC50: 4.4 µM; IC90: > 50 µM

**Q.** Which results are given for `COc1cccc(NC(=O)N2CCN(c3ccccc3)CC2)c1`?
**A.** IC50: 36.4 µM; IC90: > 50 µM

**Q.** What does the source list for `Cc1ccc(-c2cc(C(F)(F)F)n3nc(C(=O)Nc4cccnc4)cc3n2)cc1`?
**A.** IC50: > 50 µM (inactive); IC90: > 50 µM

**Q.** Which results are given for `CC(=O)c1ccc(N2CCN(C(=O)c3ccc(Br)cc3)CC2)c(F)c1`?
**A.** IC50: 4.9 µM; IC90: > 50 µM

**Q.** Which results are given for `Cc1ccc(/C=C(\CCC(=O)O)c2nc3ccccc3s2)cc1`?
**A.** IC50: 1 µM; IC90: 2.8 µM
